# Laboratory results: publication PMC9323911, “Comparative Metabolomics Study of the Impact of Articaine and Lidocaine on the Metabolism of SH-SY5Y Neuronal Cells” (Metabolites, 2022)
# Structures can show the parent of a compound that is named as a salt. Where two headings read alike, the source gives them in different places.
# Legend:
# [1] = tested on: SH-SY5Y human neuroblastoma cells; assay: resazurin cell viability assay; format: cell-based; settings: for IC50: Homo sapiens, SH-SY5Y, read-out: IC50 (cell viability)
# Protocol: Undifferentiated SH-SY5Y human neuroblastoma cells (ATCC® CRL-2266) were cultured in DMEM:F12 medium supplemented with 10% FBS and 1% antibiotic (100 IU/mLof penicillin and 100 μg/mL of streptomycin sulfate). Cells were grown in 75 cm^2 bottles and incubated at 37 °C under a humidified atmosphere with 5% CO2 for 48 h, until reaching semiconfluency. All experiments were performed on cells between passages 4 to 8.
# To assess cell viability, the resazurin test was used. This assay evaluates the ability of viable cells to reduce resazurin (blue color) to a fluorescent, pink-colored compound, resorufin. Briefly, the cells were plated in a 96-well plate 24 h before treatment, at a density of 4 × 10^4 cells/mL. […] Each LA was solubilized in complete DMEM:F12 medium. Subsequently, the medium was removed, the wells were washed with 5 mM PBS and the cells were incubated with 10% resazurin for 4 h. At the end of this period, the absorbance was measured at 570 nm (λ1) and at 600 nm (λ2) (Multiskan™ FC Microplate Photometer, Thermofisher). The experiment was performed in triplicate and the differences between the two wavelengths (λ1–λ2) were calculated. The results were expressed in % of cell viability in relation to control and analyzed in GraphPad Prism® 6.0.
# SH-SY5Y cells [2] = assay: 1H NMR metabolic profiling of culture medium (consumption/excretion); format: cell-based, human; settings: vs control
# Protocol: (§1) Afterward, the medium was collected and the dishes washed with cold PBS, immediately before the solvent extraction procedure described below. Unexposed cells were used as controls. Each assay comprised duplicates of each condition and three independent assays were performed, giving a total of 6 replicates per condition.
# (§2) The culture medium was collected from each plate (including cell-free medium incubated under the same conditions) in conical tubes and centrifuged at 1000× g for 10 min. Furthermore, 300 µL of the supernatant were collected for protein precipitation, as described by Kostidis et al.. Briefly, 600 µL of 100% methanol (v/v) at −80 °C were added to the collected supernatant ([…]). […] The supernatant was transferred to another tube and vacuum dried (SpeedVac, Eppendorf, Hamburg, Germany). For extracting cellular metabolites, a biphasic extraction protocol (methanol:chloroform:water; 1:1:0.7) was used as previously described. The resulting polar extracts were dried under vacuum in a Speedvac concentrator, and the lipophilic extracts were dried under a nitrogen flow. All extracts were stored at −80 °C prior to NMR analysis.
# (§3) For NMR analysis, dried aqueous and lipid extracts were dissolved, respectively, in 600 μL of deuterated phosphate buffer (PBS 100 mM, pH 7.4) containing 0.1 mM 3-(trimethylsilyl) propionic acid (TSP-d4), and 600 μL of deuterated chloroform containing 0.03% tetramethylsilane (TMS). […] Two-dimensional NMR spectra, namely, ^1H-^1H TOCSY, J-resolved and ^1H-^13C HSQC spectra, were also recorded for selected samples to aid metabolite identification. Signal assignment was based on matching 1D and 2D spectral information to reference spectra available in Chenomx 9.0 (Edmonton, AB, Canada), BBIOREFCODE-2–0–0 (Bruker Biospin, Rheinstetten, Germany) and HMDB.
# (§4) To provide a quantitative measurement of metabolic variations, spectral integration and total area normalization of selected signals (vide Supplementary Table S1) were carried out in Amix-Viewer 3.9.15 (Bruker Biospin, Rheinstetten, Germany). For each metabolite, the percentage of variation (or fold change) in exposed samples was calculated relative to respective controls, along with the effect size (ES) and statistical significance (p-value). The variations with larger magnitude (|ES| > 0.8) were expressed in a heatmap.
# SH-SY5Y cells [3] = assay: 1H NMR metabolic profiling of cell aqueous extracts; format: cell-based, human; settings: for 2-Ketovaline, variation in relation to control / 2-Oxoisoleucine, variation in relation to control / ATP + ADP, variation in relation to control / Alanine, variation in relation to control / Asparagine, variation in relation to control / Aspartate, variation in relation to control / Creatine, variation in relation to control / Cystathionine, variation in relation to control / Formate, variation in relation to control / Glutamate, variation in relation to control / Glutamine, variation in relation to control / Glycerophosphocholine, variation in relation to control / Glycine, variation in relation to control / Histidine, variation in relation to control / Isobutyrate, variation in relation to control / Isoleucine, variation in relation to control / Lactate, variation in relation to control / Leucine, variation in relation to control / NAD+, variation in relation to control / Panthothenic, variation in relation to control / Phenylalanine, variation in relation to control / Phosphocholine, variation in relation to control / Phosphocreatine, variation in relation to control / Proline, variation in relation to control / UDP-GlcNAc, variation in relation to control / Valine, variation in relation to control / beta-Alanine, variation in relation to control / myo-Inositol, variation in relation to control: aqueous extract
# Protocol: as §1, §2, §3
# Principal Component Analysis (PCA) and Partial Least Squares-Discriminant Analysis (PLS-DA) were applied and the results were visualized through factorial co-ordinates (‘scores’) and factorial contributions (‘loadings’) colored according to variable importance to the projection (VIP). For PLS-DA models, Q^2 and R^2 values, respectively reflecting predictive capability and explained variance, obtained from sevenfold internal cross validation, were used to assess the robustness of group discrimination.
# as §4
smiles,measurement,setting,value
"CCCNC(C)C(=O)Nc1c(C)csc1C(=O)OC (stereo not drawn) [ATC, Articaine hydrochloride]",IC10 (concentration reducing cell viability by 10%),[1]; 24 h exposure,1.2 mM
same,IC50,"[1]; 20 min, 20 min exposure",> 10 mM
same,IC50,[1]; 1 h exposure,> 10 mM
same,IC50,[1]; 4 h exposure,5.4 ± 0.3 mM
same,IC50,[1]; 24 h exposure,3 ± 0.2 mM
same,IC50,[1]; shortest exposure durations (20 min and 1 h),> 10 mM
same,pyruvate consumption,"SH-SY5Y cells [2]; IC10, 24 h",increased significantly
same,pyruvate consumption,"SH-SY5Y cells [2]; IC50, 24 h",no difference to controls
same,"2-Ketovaline, variation in relation to control","SH-SY5Y cells [3]; IC10, 24 h",24.7%
same,"2-Oxoisoleucine, variation in relation to control","SH-SY5Y cells [3]; IC10, 24 h",33.8%
same,"ATP + ADP, variation in relation to control","SH-SY5Y cells [3]; IC10, 24 h",-8.0%
same,"Alanine, variation in relation to control","SH-SY5Y cells [3]; IC10, 24 h",0.0%
same,"Asparagine, variation in relation to control","SH-SY5Y cells [3]; IC10, 24 h",-24.6%
same,"Aspartate, variation in relation to control","SH-SY5Y cells [3]; IC10, 24 h",-17.2%
same,"Creatine, variation in relation to control","SH-SY5Y cells [3]; IC10, 24 h",9.0%
same,"Cystathionine, variation in relation to control","SH-SY5Y cells [3]; IC10, 24 h",10.9%
same,"Formate, variation in relation to control","SH-SY5Y cells [3]; IC10, 24 h",0.0%
same,"Glutamate, variation in relation to control","SH-SY5Y cells [3]; IC10, 24 h",-6.3%
same,"Glutamine, variation in relation to control","SH-SY5Y cells [3]; IC10, 24 h",-10.8%
same,"Glycerophosphocholine, variation in relation to control","SH-SY5Y cells [3]; IC10, 24 h",-11.3%
same,"Glycine, variation in relation to control","SH-SY5Y cells [3]; IC10, 24 h",0.0%
same,"Histidine, variation in relation to control","SH-SY5Y cells [3]; IC10, 24 h",29.6%
same,"Isobutyrate, variation in relation to control","SH-SY5Y cells [3]; IC10, 24 h",0.0%
same,"Isoleucine, variation in relation to control","SH-SY5Y cells [3]; IC10, 24 h",30.5%
same,"Lactate, variation in relation to control","SH-SY5Y cells [3]; IC10, 24 h",0.0%
same,"Leucine, variation in relation to control","SH-SY5Y cells [3]; IC10, 24 h",39.9%
same,"NAD+, variation in relation to control","SH-SY5Y cells [3]; IC10, 24 h",0.0%
same,"Panthothenic, variation in relation to control","SH-SY5Y cells [3]; IC10, 24 h",42.7%
same,"Phenylalanine, variation in relation to control","SH-SY5Y cells [3]; IC10, 24 h",43.6%
same,"Phosphocholine, variation in relation to control","SH-SY5Y cells [3]; IC10, 24 h",0.0%
same,"Phosphocreatine, variation in relation to control","SH-SY5Y cells [3]; IC10, 24 h",0.0%
same,"Proline, variation in relation to control","SH-SY5Y cells [3]; IC10, 24 h",0.0%
same,"UDP-GlcNAc, variation in relation to control","SH-SY5Y cells [3]; IC10, 24 h",-18.7%
same,"Valine, variation in relation to control","SH-SY5Y cells [3]; IC10, 24 h",27.2%
same,"beta-Alanine, variation in relation to control","SH-SY5Y cells [3]; IC10, 24 h",-7.4%
same,"myo-Inositol, variation in relation to control","SH-SY5Y cells [3]; IC10, 24 h",-19.0%
same,"2-Ketovaline, variation in relation to control","SH-SY5Y cells [3]; IC50, 24 h",28.3%
same,"2-Oxoisoleucine, variation in relation to control","SH-SY5Y cells [3]; IC50, 24 h",34.4%
same,"ATP + ADP, variation in relation to control","SH-SY5Y cells [3]; IC50, 24 h",-14.0%
same,"Alanine, variation in relation to control","SH-SY5Y cells [3]; IC50, 24 h",21.3%
same,"Asparagine, variation in relation to control","SH-SY5Y cells [3]; IC50, 24 h",26.5%
same,"Aspartate, variation in relation to control","SH-SY5Y cells [3]; IC50, 24 h",23.7%
same,"Creatine, variation in relation to control","SH-SY5Y cells [3]; IC50, 24 h",14.7%
same,"Cystathionine, variation in relation to control","SH-SY5Y cells [3]; IC50, 24 h",0.0%
same,"Formate, variation in relation to control","SH-SY5Y cells [3]; IC50, 24 h",40.5%
same,"Glutamate, variation in relation to control","SH-SY5Y cells [3]; IC50, 24 h",25.8%
same,"Glutamine, variation in relation to control","SH-SY5Y cells [3]; IC50, 24 h",17.8%
same,"Glycerophosphocholine, variation in relation to control","SH-SY5Y cells [3]; IC50, 24 h",-75.7%
same,"Glycine, variation in relation to control","SH-SY5Y cells [3]; IC50, 24 h",42.8%
same,"Histidine, variation in relation to control","SH-SY5Y cells [3]; IC50, 24 h",37.5%
same,"Isobutyrate, variation in relation to control","SH-SY5Y cells [3]; IC50, 24 h",-78.2%
same,"Isoleucine, variation in relation to control","SH-SY5Y cells [3]; IC50, 24 h",44.5%
same,"Lactate, variation in relation to control","SH-SY5Y cells [3]; IC50, 24 h",-17.5%
same,"Leucine, variation in relation to control","SH-SY5Y cells [3]; IC50, 24 h",60.3%
same,"NAD+, variation in relation to control","SH-SY5Y cells [3]; IC50, 24 h",11.9%
same,"Panthothenic, variation in relation to control","SH-SY5Y cells [3]; IC50, 24 h",40.0%
same,"Phenylalanine, variation in relation to control","SH-SY5Y cells [3]; IC50, 24 h",50.2%
same,"Phosphocholine, variation in relation to control","SH-SY5Y cells [3]; IC50, 24 h",0.0%
same,"Phosphocreatine, variation in relation to control","SH-SY5Y cells [3]; IC50, 24 h",-18.9%
same,"Proline, variation in relation to control","SH-SY5Y cells [3]; IC50, 24 h",-17.8%
same,"UDP-GlcNAc, variation in relation to control","SH-SY5Y cells [3]; IC50, 24 h",-85.9%
same,"Valine, variation in relation to control","SH-SY5Y cells [3]; IC50, 24 h",44.8%
same,"beta-Alanine, variation in relation to control","SH-SY5Y cells [3]; IC50, 24 h",-60.7%
same,"myo-Inositol, variation in relation to control","SH-SY5Y cells [3]; IC50, 24 h",-42.6%
same,intracellular glutamate level (in words),"SH-SY5Y cells [3]; IC50, 24 h, vs control",increased
same,intracellular phosphocholine level (in words),"SH-SY5Y cells [3]; IC50, 24 h, vs control",not altered
